Measured values published in PubChem BioAssay AID1259407 (Chemical Carcinogenesis Research Information System (CCRIS), 2018).
The source made the active and inactive calls. How the calls were made is not given here.

Tested on: CCRIS mutagenicity, Ames/micronucleus/aberration tests
Experiment: CCRIS mutagenicity studies
[1] = Test System: AMES SALMONELLA TYPHIMURIUM, Strain/Indicator: TA98, Metabolic Activation: NONE, Method: PREINCUBATION

## O=S1(=O)CCCC1
[1]
  mutagenic call: inactive; negative
Test System: AMES SALMONELLA TYPHIMURIUM, Strain/Indicator: TA98, Metabolic Activation: RAT, LIVER, S-9, KC 500, Method: PREINCUBATION
  mutagenic call: inactive; negative
Test System: AMES SALMONELLA TYPHIMURIUM, Strain/Indicator: TA100, Metabolic Activation: NONE, Method: PREINCUBATION
  mutagenic call: inactive; negative
Test System: AMES SALMONELLA TYPHIMURIUM, Strain/Indicator: TA100, Metabolic Activation: RAT, LIVER, S-9, KC 500, Method: PREINCUBATION
  mutagenic call: inactive; negative
Test System: AMES SALMONELLA TYPHIMURIUM, Strain/Indicator: TA1535, Metabolic Activation: NONE, Method: PREINCUBATION
  mutagenic call: inactive; negative
Test System: AMES SALMONELLA TYPHIMURIUM, Strain/Indicator: TA1535, Metabolic Activation: RAT, LIVER, S-9, KC 500, Method: PREINCUBATION
  mutagenic call: inactive; negative
Test System: AMES SALMONELLA TYPHIMURIUM, Strain/Indicator: TA1537, Metabolic Activation: NONE, Method: PREINCUBATION
  mutagenic call: inactive; negative
Test System: AMES SALMONELLA TYPHIMURIUM, Strain/Indicator: TA1537, Metabolic Activation: RAT, LIVER, S-9, KC 500, Method: PREINCUBATION
  mutagenic call: inactive; negative
Test System: AMES SALMONELLA TYPHIMURIUM, Strain/Indicator: TA1538, Metabolic Activation: NONE, Method: PREINCUBATION
  mutagenic call: inactive; negative
Test System: AMES SALMONELLA TYPHIMURIUM, Strain/Indicator: TA1538, Metabolic Activation: RAT, LIVER, S-9, KC 500, Method: PREINCUBATION
  mutagenic call: inactive; negative
Test System: E. COLI, Strain/Indicator: WP2 UVRA, Metabolic Activation: NONE, Method: PREINCUBATION
  mutagenic call: inactive; negative
Test System: E. COLI, Strain/Indicator: WP2 UVRA, Metabolic Activation: RAT, LIVER, S-9, KC 500, Method: PREINCUBATION
  mutagenic call: inactive; negative

## O=[N+]([O-])/C=C/c1ccc([N+](=O)[O-])o1
[1]
  mutagenic call: active; positive

## C/[N+]([O-])=N/CO
Test System: AMES SALMONELLA TYPHIMURIUM, Strain/Indicator: G46, Metabolic Activation: NONE, Method: STANDARD PLATE
  mutagenic call: active; positive
Test System: AMES SALMONELLA TYPHIMURIUM, Strain/Indicator: TA100, Metabolic Activation: RAT, LIVER, S-9, KC500 OR PHENOBARBITAL, Method: LIQUID SUSPENSION
  mutagenic call: active; positive
Test System: AMES SALMONELLA TYPHIMURIUM, Strain/Indicator: TA1535, Metabolic Activation: RAT, LIVER, S-9, KC500 OR PHENOBARBITAL, Method: LIQUID SUSPENSION
  mutagenic call: active; positive
Test System: CHINESE HAMSTER V-79, Strain/Indicator: V-79/OUABAIN, Metabolic Activation: NONE, Method: STANDARD PLATE
  mutagenic call: active; positive

## O=C1O[C@H]([C@H](O)CO)C(O)=C1O
End Point: IN VIVO MICRONUCLEUS, Test System: BONE MARROW POLYCHROMATIC ERYTHROCYTES, Species: MOUSE, Strain/Sex: DDY/MALE, Route: IP
  mutagenic call: inactive; negative
Test System: AMES SALMONELLA TYPHIMURIUM, Strain/Indicator: TA97, Metabolic Activation: NONE, Method: PREINCUBATION
  mutagenic call: inactive; negative
Test System: AMES SALMONELLA TYPHIMURIUM, Strain/Indicator: TA97, Metabolic Activation: RAT, LIVER, S-9, AROCLOR 1254, Method: PREINCUBATION
  mutagenic call: inactive; negative
Test System: AMES SALMONELLA TYPHIMURIUM, Strain/Indicator: TA102, Metabolic Activation: NONE, Method: PREINCUBATION
  mutagenic call: inactive; negative
Test System: AMES SALMONELLA TYPHIMURIUM, Strain/Indicator: TA102, Metabolic Activation: RAT, LIVER, S-9, AROCLOR 1254, Method: PREINCUBATION
  mutagenic call: inactive; negative

## Cn1c2ccccc2c2ccc([N+](=O)[O-])cc21
Test System: AMES SALMONELLA TYPHIMURIUM, Strain/Indicator: TA98, Metabolic Activation: NONE, Method: STANDARD PLATE
  mutagenic call: active; positive
Test System: AMES SALMONELLA TYPHIMURIUM, Strain/Indicator: TA98, Metabolic Activation: RAT LIVER S-9, AROCLOR 1254, Method: STANDARD PLATE
  mutagenic call: active; positive
Test System: AMES SALMONELLA TYPHIMURIUM, Strain/Indicator: TA100, Metabolic Activation: NONE, Method: STANDARD PLATE
  mutagenic call: active; positive
Test System: AMES SALMONELLA TYPHIMURIUM, Strain/Indicator: TA100, Metabolic Activation: RAT LIVER S-9, AROCLOR 1254, Method: STANDARD PLATE
  mutagenic call: active; positive
